Patent publication US20230248759A1, “ORAL RINSE COMPOSITIONS FOR ALLEVIATING XEROSTOMIA COMPRISING POLYETHYLENE GLYCOL DERIVATIVES” (SunBio Inc., priority 2021, published 2023)

Test system: cultured cells (L-929)
Test: Cytotoxicity test, liquid sample (dilution type), ISO 10993
Assay type: cell-based
Settings: L-929, liquid test, 0.025 g/ml in media for test material
Method: The cytotoxicity test is a test to confirm the safety of the composition according to the present invention, and the presence and degree of a cytotoxic reaction in cultured cells (L-929) was evaluated. A good laboratory practice (GLP) institution was commissioned to perform the test according to each test method presented in ISO 10993.
5-2. Test Method of Liquid Sample: A liquid test solution was prepared in which a dilution solution (2× E-MEM+10% FBS) and the liquid test material were combined/diluted in a 1:1 ratio. The culture medium of cell L-929 was removed from the plate well, replaced with 1 mL of test solution and control medium (diluent), and then the cells were cultured. During culturing, microscopic examinations were carried out every 24, 48, 72±4 hours to evaluate cytotoxicity. Cadmium chloride (100 uM CdCl2) as a positive control and E-MEM+5% FBS as a negative control were also used in the test.
As the evaluation criteria of the cytotoxicity test, a score of 0 to 4 was recorded by evaluating the morphological change of cells and the degree of change in viable cells according to lysis or separation. Scores 3 and 4 were judged to be cytotoxic, and scores of 1 and 2 were judged to be non-cytotoxic.

[Cl][Cd][Cl] [Positive Control, Cadmium chloride]
0/0/0: Cytotoxicity Score 24 hr (24 hr) | Cytotoxicity Score 48 hr (48 hr) | Cytotoxicity Score 72 hr (72 hr)
